Results: patent US4352811A, “3-(1-Substituted-4-piperidyl)-1,2-benzisoxazoles” (Hoechst-Roussel Pharmaceuticals Inc., priority 1981, dated 1982)
Structures can show the parent of a compound that is named as a salt.

Tested on: apomorphine climbing
Assay: Neuroleptic activity in the climbing mice assay (apomorphine-induced climbing)
Format: in vivo, mice (CK-1 male)
Conditions: Mus musculus, ip, intraperitoneal 30 min before apomorphine 1.5 mg/kg s.c., climbing scored at 10, 20 and 30 min, linear regression, read-out: NEUROLEPTIC ACTIVITY (ED50 mg/kg)
Procedure: The subject CK-1 male mice (23-27 grams) are group-housed under standard laboratory conditions. The mice are individually placed in wire mesh stick cages (4"×4" by 10") and are allowed one hour for adaptation and exploration of the new environment.
For evaluation of climbing, 3 readings are taken at 10, 20 and 30 minutes after apomorphine administration according to the following scale: […]
Mice consistently climbing before the injection of apormorphine will be discarded.
With full-developed apomorphine climbing, the animals are hanging onto the cage walls, rather motionless, over longer periods of time. By contrast, climbs due to mere motor stimulation usually only last a few seconds.
The climbing scores are individually totaled (maximal score: 6 per mouse over 3 readings) and the total score of the control group (vehicle intraperitoneally--apomorphine subcutaneously) is set to 100%.

Going from `Cl.O=C(CCCN1CCC(c2noc3cc(Cl)ccc23)CC1)c1ccc(F)cc1` [3-[1-(4-Fluorobenzoylpropyl)-4-piperidyl]-6-chloro-1,2-benzisoxazole hydrochloride] to `Cl.Fc1ccc(C(CCCN2CCC(c3noc4cc(Cl)ccc34)CC2)c2ccc(F)cc2)cc1` [6-Chloro-3{1-[4,4-bis(4-fluorophenyl)-1-butyl]-4-piperidyl}-1,2-benzisoxazole hydrochloride], the ED50 rises from 0.27 mg/kg to 6.4 mg/kg (24-fold).

Compared with `Fc1ccc2c(CCCN3CCC(c4noc5ccc(F)cc45)CC3)noc2c1` [3-[1-(6-Fluoro-1,2-benzisoxazol-3-propyl)-4-piperidyl]-5-fluoro-1,2-benzisoxazole hydrochloride], `COc1ccc2onc(C3CCN(CCCc4noc5cc(F)ccc45)CC3)c2c1` [3-[1-(6-Fluoro-1,2-benzisoxazole-3-propyl)-4-piperidyl]-5-methoxy-1,2-benzisoxazole hydrobromide] is 2.1-fold higher in ED50: 3.4 mg/kg for the first, 7.23 mg/kg for the second.

First: O=c1[nH]c2ccccc2n1CCCN1CCC(c2noc3ccccc23)CC1 [3-{1,3-dihydro-2-oxo-2H-benzmidazol-1-ylpropyl]-4-piperidyl}-1,2-benzisoxazole]
Second: Br.O=c1[nH]c2ccccc2n1CCN1CCC(c2noc3ccccc23)CC1 [3-{1-[1,3-Dihydro-2-oxo-2H-benzimidazol-1-ylethyl]-4-piperidyl}1,2-benzisoxazole hydrobromide]
The ED50 of the first is 21-fold lower: 0.36 mg/kg for the first, 7.7 mg/kg for the second.

Compared with `Fc1ccc(C(CCCN2CCC(c3noc4ccc(F)cc34)CC2)c2ccc(F)cc2)cc1` [3-{1-[4,4-bis-Fluorophenyl)-1-butyl]-4-piperidyl}-5-fluoro-1,2-benzisoxazole hydrochloride], `Fc1ccc(C(CCCN2CCC(c3noc4cc(F)ccc34)CC2)c2ccc(F)cc2)cc1` [6-Fluoro-3-{1-[4,4-bis(4-fluorophenyl)-1-butyl]-4-piperidyl]-1,2-benzisoxable hydrobromide] is 2.8-fold lower in ED50: 1.6 mg/kg for the first, 0.58 mg/kg for the second.

First: Cc1[nH]c2ccccc2c1CCCN1CCC(c2noc3cc(F)ccc23)CC1 [3-{3-[4-(6-Fluoro-1,2-benzisoxazol-3-yl)piperidyl]propyl}-2-methylindole]
Second: CCN1CCCC1CNC(=O)c1cc(S(N)(=O)=O)ccc1OC (centres unmarked) [sulpiride, reference compound]
The ED50 of the first is 91-fold lower: 0.16 mg/kg for the first, 14.5 mg/kg for the second.

Same assay, conditions: Mus musculus, ip, intraperitoneal 30 min before apomorphine 1.5 mg/kg s.c., climbing scored at 10, 20 and 30 min, linear regression, read-out: N[…] (ED50 mg/kg)

Work on `O=C(CCCN1CCC(O)(c2ccc(Cl)cc2)CC1)c1ccc(F)cc1` [haloperidol, reference compound] yielded an ED50 of 0.11 mg/kg.
